“Also recorded” adds a separate entry of the source. Where two headings read alike, the source gives them in different places. Ends that are not written are not given here.
Key:
C. difficile = assay: MIC of antimicrobial peptides (Table 4); type: cell-based, Clostridium difficile
A. baumannii = assay: MIC of antimicrobial peptides (Table 4); type: cell-based, Acinetobacter baumannii
S. epidermidis = assay: MIC of antimicrobial peptides (Table 4); type: cell-based, Staphylococcus epidermidis
[1] = system: bacteria, fungi, and/or yeasts; type: binding
MRSA = assay: MIC of antimicrobial peptides (Table 4); type: cell-based, Methicillin-resistant Staphylococcus aureus
P. aeruginosa = assay: MIC of antimicrobial peptides (Table 4); type: cell-based, Pseudomonas aeruginosa
S. mutans = assay: MIC of antimicrobial peptides (Table 4); type: cell-based, Streptococcus mutans
C. albicans = assay: MIC of antimicrobial peptides (Table 4); type: cell-based, Candida albicans
T. rubrum = assay: MIC of antimicrobial peptides (Table 4); type: cell-based, Trichophyton rubrum
A. niger = assay: MIC of antimicrobial peptides (Table 4); type: cell-based, Aspergillus niger
B. subtilis = assay: MIC of antimicrobial peptides (Table 4); type: cell-based, Bacillus subtilis
C. jeikeium = assay: MIC of antimicrobial peptides (Table 4); type: cell-based, Corynebacterium jeikeium
S. pneumoniae = assay: MIC of antimicrobial peptides (Table 4); type: cell-based, Streptococcus pneumoniae
E. coli = assay: MIC of antimicrobial peptides (Table 4); type: cell-based, Escherichia coli
E. faecalis = assay: MIC of antimicrobial peptides (Table 4); type: cell-based, Enterococcus faecalis
[2] = microorganism(s) listed as target(s) of the targeting peptide, wrapped target lists given cell by cell

Row | Substance | Organism MIC (S. epidermidis) | Organism MIC (MRSA) | Organism MIC (T. rubrum) | Organism MIC (A. niger) | Organism MIC (B. subtilis; B. subtilis) | other results
1 | KNKKQTDILEKVKEILDKKKKTKSVGQKLY [PF-538] |  |  |  |  |  | Organism MIC (C. difficile): C. difficile, 25 μM; Organism MIC (A. baumannii): A. baumannii, 25 μM
2 | KFQGEFTNIGQSYIVSASHMSTSLNTGK [PF-583] | S. epidermidis, 50 μM | MRSA, 50 μM |  |  |  | Target(s) [1, 2]: C. albicans hyphae
3 | SKFKVLRKIIIKEYKGELMLSIQKQR [PF-530] |  |  |  |  |  | Organism MIC (A. baumannii): A. baumannii, 25 μM
4 | FIRKFLQKLHL [K-16] |  | MRSA, 25 μM |  |  |  | Organism MIC (P. aeruginosa): P. aeruginosa, 12.5 μM; Organism MIC (S. mutans): S. mutans, 8 μM
5 | LSLATFAKIFMTRSNWSLKRFNRL [PF-278] | S. epidermidis, 50 μM |  | T. rubrum, 50 μM |  |  | Organism MIC (C. albicans): C. albicans, 50 μM
6 | NYAVVSHT [PF-209] |  | MRSA, 50 μM |  |  |  | 
7 | YIQFHLNQQPRPKVKKIKIFL-NH2 [PF-531] | S. epidermidis, 50 μM |  | T. rubrum, 50 μM | A. niger, 25 μM | B. subtilis, 25 μM | Organism MIC (C. difficile): C. difficile, 12.5 μM; Organism MIC (A. baumannii): A. baumannii, 25 μM; Organism MIC (P. aeruginosa): P. aeruginosa, 50 μM; Organism MIC (S. mutans): S. mutans, 12.5 μM; Organism MIC (C. jeikeium): C. jeikeium, 6.25 μM
8 | FESKILNASKELDKEKKVNTALSFNSHQDFAKAYQNGKI [PF-606] | S. epidermidis, 50 μM | MRSA, 50 μM |  |  |  | Organism MIC (S. pneumoniae): S. pneumoniae, 50 μM; Organism MIC (E. coli): E. coli, 50 μM; Organism MIC (S. mutans): S. mutans, 50 μM
9 | RESKLIAMADMIRRRI-NH2 [PF-545] |  | MRSA, 50 μM |  | A. niger, 50 μM | B. subtilis, 25 μM | 
10 | MIRIRSPTKKKLNRNSISDWKSNTSGRFFY [PF-283] | S. epidermidis, 50 μM |  | T. rubrum, 50 μM |  | B. subtilis, 50 μM | 
11 | GSVIKKRRKRMAKKKHRKLLKKTRIQRRRAGK [PF-527] | S. epidermidis, 25 μM | MRSA, 50 μM | T. rubrum, 25 μM | A. niger, 50 μM |  | Target(s) [1]: S. epidermidis, M. luteus, P. mirabilis,; also recorded: E. coli, P. aeruginosa,; also recorded: MRSA, S. pneumoniae, E. faecalis,; also recorded: C. jeikeium, C. jejuni; Organism MIC (P. aeruginosa): P. aeruginosa, 50 μM; Organism MIC (B. subtilis): B. subtilis, 12.5 μM; Organism MIC (C. jeikeium): C. jeikeium, 6.25 μM
12 | FELVDWLETNLGKILKSKSA-NH2 [PF-522] |  |  |  |  |  | Organism MIC (C. difficile): C. difficile, 25 μM
13 | KFSDQIDKGQDALKDKLGDL [PF-525] |  |  |  | A. niger, 50 μM |  | Organism MIC (S. pneumoniae): S. pneumoniae, 50 μM
14 | MGIIAGIIKFIKGLIEKFTGK [PF-006] |  | MRSA, 50 μM |  |  | B. subtilis, 25 μM | Organism MIC (A. baumannii): A. baumannii, 50 μM; Target(s) [1, 2]: S. epidermidis, M. luteus, E. coli,; also recorded: P. aeruginosa, MRSA, E. faecalis,; also recorded: C. jeikeium, C. jejuni
15 | TKKIELKRFVDAFVKKSYENYILERELKKLIKAINEELPTK [PF-600] |  |  |  |  |  | Organism MIC (S. pneumoniae): S. pneumoniae, 50 μM; Organism MIC (E. coli): E. coli, 50 μM
16 | WSRVPGHSDTGWKVWHRW-NH2 [PF-547] |  |  | T. rubrum, 25 μM |  | B. subtilis, 25 μM | Organism MIC (S. mutans): S. mutans, 12.5 μM
17 | MRFGSLALVAYDSAIKHSWPRPSSVRRLRM [PF-672] | S. epidermidis, 0.39 μM | MRSA, 1.56 μM | T. rubrum, 0.78 μM | A. niger, 3 μM | B. subtilis, 0.78 μM | Organism MIC (C. albicans): C. albicans, 1.56 μM; Organism MIC (E. faecalis): E. faecalis, 3.13 μM
18 | VLPFPAIPLSRRRACVAAPRPRSRQRAS [PF-168] |  | MRSA, 50 μM | T. rubrum, 50 μM | A. niger, 50 μM |  | Target(s) [1, 2]: yeast cells; also recorded: S. epidermidis, M. luteus, E. coli,; also recorded: C. albicans, MRSA, C. jeikeium,; also recorded: C. jejuni
19 | MKRRRCNWCGKLFYLEEKSKEAYCCKECRKKAKKVKK [PF-307] |  |  | T. rubrum, 50 μM |  | B. subtilis, 50 μM | Organism MIC (C. albicans): C. albicans, 50 μM

From patent US20120003661A1, “METHODS AND DEVICES FOR THE SELECTIVE DETECTION OF MICROORGANISMS” (C3 JIAN, INC., priority 2010, published 2012)
